# What was measured:
# [1] = test system: Zucker diabetic fatty (ZDF, fa/fa) rats; test: Cataract formation in Zucker diabetic fatty rats fed genistein in chow for six months; type: in vivo, rat
# Procedure: (§1) Thirty pair of litter mates of Zucker rats, i.e., thirty male retired breeder Zucker diabetic fatty (ZDF, fa/fa) rats and thirty male retired breeder lean Zucker (fa/+) rats, were obtained (Genetic Models, Inc., Indianapolis, Ind.). The animals were treated in accordance with The Association for Research in Vision and Ophthalmology (ARVO) Statement for the Use of Animals in Ophthalmic and Vision Research. The average blood glucose value was more than 500 mg/dl for the Zucker diabetic fatty rats and 120 mg/dl for the control lean rats as measured by glucose oxidase assay at the time of death (Danis et al. (1993), supra).
# (§2) Zucker diabetic fatty rats were divided into four groups and fed Purina 5008 rat chow containing varying concentrations of genistein: 0 mg/kg chow, 75 mg/kg chow, 150 mg/kg chow and 300 mg/kg chow. Cataract formation was assessed after six months of treatment. The extent of cataract formation was determined after dilating pupils with phenylephrine (2.5%) and Tropicamide (1%) in rats under general anesthesia resulting from intraperitoneal injections of ketamine (40 mg/kg) and xylazine (4 mg/kg). Disease progression was categorized as total cataract, partial cataract (mainly minimal posterior subcapsular cataract), or no cataract.
# [2] = test system: lean Zucker (fa/+) rats; test: Cataract formation in lean Zucker control rats fed genistein in chow; type: in vivo, rat; settings: lean Zucker rats, 0, 75, 150 or 300 mg Genistein/kg chow, six months
# Procedure: as §1, §2
# Zucker lean rats were also divided into 4 groups and fed Purina 5008 chow containing 0, 75, 150 or 300 mg Genistein/ kg chow. […]
# [3] = test system: retina; test: Retinal toxicity by electroretinography after oral genistein; type: in vivo; settings: 75 mg/kg/day to 300 mg/kg/day, six months, Zucker diabetic fatty rats
# Text: (§3) An advantage of genistein is that it is very safe and efficacious. […] Also, no effect of orally administered genistein was found with respect to the weight of the ovaries and the uterus in female rats.
# [4] = Food intake and body weight after oral genistein; type: in vivo; settings: oral administration, male and female rats
# Text: as §3
# [5] = Weight of the ovaries and the uterus after oral genistein; type: in vivo; settings: oral administration, female rats
# Text: as §3
structure (smiles),measurement,setting,value
"O=c1c(-c2ccc(O)cc2)coc2cc(O)cc(O)c12 [genistein, 5,7-dihydroxy-3-(4-hydroxyphenyl)-4H-1-benzopyran-4-one]",Partial Cataract (number of rats),"[1]; 75 mg/kg chow, n = 7",3
same,Total Cataract (number of rats),"[1]; 75 mg/kg chow, n = 7",4
same,No Cataract (number of rats),"[1]; 150 mg/kg chow, n = 8",2
same,Partial Cataract (number of rats),"[1]; 150 mg/kg chow, n = 8",2
same,Total Cataract (number of rats),"[1]; 150 mg/kg chow, n = 8",4
same,Partial Cataract (number of rats),"[1]; 300 mg/kg chow, n = 8",3
same,Total Cataract (number of rats),"[1]; 300 mg/kg chow, n = 8",5
same,Inhibition of cataract formation,[1]; 75-300 mg/kg chow,significantly inhibits cataract formation
same,Cataracts in lean control rats,[2],not present
same,Toxicity to the retina as measured by electroretinography,[3],nontoxic to the retina
same,Effect on body weight,[4],no effect
same,Effect on food intake,[4],no effect
same,Effect on weight of the ovaries and the uterus,[5],no effect

# From US6399655B1, “Method for the prophylactic treatment of cataracts” (Johns Hopkins University, School of Medicine, priority 1998, dated 2002)
